Experimental data published in patent publication US20210395239A1 (Hoffmann-La Roche Inc., priority 2018, published 2021).

Target: T1, hTLR9 (Homo sapiens, UniProt Q9NR96)
T1 sequence (Q9NR96 26-1032): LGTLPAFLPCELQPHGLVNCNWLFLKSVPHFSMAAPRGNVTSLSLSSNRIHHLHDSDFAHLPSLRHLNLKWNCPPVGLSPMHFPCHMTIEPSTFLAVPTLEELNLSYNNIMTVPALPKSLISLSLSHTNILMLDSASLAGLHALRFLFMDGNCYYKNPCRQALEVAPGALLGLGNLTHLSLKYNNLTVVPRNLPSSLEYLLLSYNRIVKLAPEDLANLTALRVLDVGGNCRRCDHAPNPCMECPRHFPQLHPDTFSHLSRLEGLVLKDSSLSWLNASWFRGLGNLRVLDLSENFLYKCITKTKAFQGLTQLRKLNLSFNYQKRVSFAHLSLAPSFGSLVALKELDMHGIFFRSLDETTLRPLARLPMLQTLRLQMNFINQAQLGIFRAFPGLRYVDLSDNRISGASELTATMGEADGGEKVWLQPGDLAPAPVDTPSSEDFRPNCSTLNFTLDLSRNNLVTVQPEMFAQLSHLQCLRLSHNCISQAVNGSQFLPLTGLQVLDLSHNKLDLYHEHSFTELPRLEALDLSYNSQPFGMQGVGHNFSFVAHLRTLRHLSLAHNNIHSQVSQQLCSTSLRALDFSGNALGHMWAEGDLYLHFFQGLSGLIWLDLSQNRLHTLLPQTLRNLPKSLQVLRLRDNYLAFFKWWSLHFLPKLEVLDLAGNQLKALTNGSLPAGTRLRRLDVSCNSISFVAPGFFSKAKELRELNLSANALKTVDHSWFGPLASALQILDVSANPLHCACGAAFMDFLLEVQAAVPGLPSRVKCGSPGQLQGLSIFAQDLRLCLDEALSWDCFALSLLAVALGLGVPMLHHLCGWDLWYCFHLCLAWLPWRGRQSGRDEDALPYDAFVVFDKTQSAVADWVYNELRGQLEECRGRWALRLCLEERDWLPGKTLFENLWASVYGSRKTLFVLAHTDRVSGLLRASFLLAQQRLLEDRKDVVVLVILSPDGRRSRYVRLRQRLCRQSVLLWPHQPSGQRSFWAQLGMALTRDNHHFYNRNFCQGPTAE
Test: HEK293-Blue-hTLR-9 cells assay (SEAP reporter, ODN2006 stimulation)
Type: cell-based
Set-up: host or cells: HEK293 (HEK-Blue hTLR9)
Settings: HEK293-Blue-hTLR9 cells, ODN2006, 20 hrs; read-out: HEK/hTLR9 IC50
Description: HEK293-Blue-hTLR-9 Cells Assay:
A stable HEK293-Blue-hTLR-9 cell line was purchased from InvivoGen (Cat. #: hkb-htlr9, San Diego, Calif., USA). These cells were originally designed for studying the stimulation of human TLR9 by monitoring the activation of NF-κB. A SEAP (secreted embryonic alkaline phosphatase) reporter gene was placed under the control of the IFN-β minimal promoter fused to five NF-κB and AP-1-binding sites. The SEAP was induced by activating NF-κB and AP-1 via stimulating HEK-Blue hTLR9 cells with TLR9 ligands. Therefore the reporter expression was declined by TLR9 antagonist under the stimulation of a ligand, such as ODN2006 (Cat. #: tlrl-2006-1, Invivogen, San Diego, Calif., USA), for incubation of 20 hrs. The cell culture supernatant SEAP reporter activity was determined using QUANTI-Blue™ kit (Cat. #: rep-qb1, Invivogen, San Diego, Calif., USA) at a wavelength of 640 nm, a detection medium that turns purple or blue in the presence of alkaline phosphatase.
HEK293-Blue-hTLR9 cells were incubated at a density of 250,000˜450,000 cells/mL in a volume of 170 μL in a 96-well plate in Dulbecco's Modified Eagle's medium (DMEM) containing 4.5 g/L glucose, 50 U/mL penicillin, […], 2 mM L-glutamine, 10% (v/v) heat-inactivated fetal bovine serum with addition of 20 μL test compound in a serial dilution in the presence of final DMSO at 1% and 10 μL of 20 uM ODN2006 in above DMEM, perform incubation under 37° C. in a CO2 incubator for 20 hrs. Then 20 μL of the supernatant from each well was incubated with 180 μL Quanti-blue substrate solution at 37° C. for 2 h and the absorbance was read at 620-655 nm using a spectrophotometer. The signaling pathway that TLR9 activation leads to downstream NF-κB activation has been widely accepted, and therefore similar reporter assay was modified for evaluating TLR9 antagonist.

| SMILES | IC50 [µM] |
| --- | --- |
| Cc1ccc(N2C[C@H](CN3CCN(c4ccnc(N5C[C@H]6NCCO[C@@H]6C5)n4)CC3)O[C@H](C)C2)c2nccnc12 [Example 129, (4aR,7aR)-6-[4-[4-[[(2S,6R)-6-methyl-4-(8-methylquinoxalin-5-yl)morpholin-2-yl]methyl]piperazin-1-yl]pyrimidin-2-yl]-3,4,4a,5,7,7a-hexahydro-2H-pyrrolo[3,4-b][1,4]oxazine] | 0.171 |
| C[C@@H]1CN(c2ccc(C#N)c3ncccc23)C[C@H](CN2CCC(c3cccc(N4CCNCC4)c3)C2)O1 (stereo partly drawn) [Example 1, 5-[(2R,6S)-2-methyl-6-[[3-(3-piperazin-1-ylphenyl)pyrrolidin-1-yl]methyl]morpholin-4-yl]quinoline-8-carbonitrile] | 0.136 |
| C[C@@H]1CN(c2ccc(C#N)n3ncc(F)c23)C[C@H](CN2CC(c3ccc(N4CC(C)(N)C4)nc3)C2)O1 [Example 158, 4-[(2S,6R)-2-[[3-[6-(3-amino-3-methyl-azetidin-1-yl)-3-pyridyl]azetidin-1-yl]methyl]-6-methyl-morpholin-4-yl]-3-fluoro-pyrazolo[1,5-a]pyridine-7-carbonitrile] | 0.041 |
| C[C@@H]1CN(c2ccc(C#N)c3ncccc23)C[C@H](CN2CC(c3ccc(N4CCNCC4)cc3)C2)O1 [Example 3, 5-[(2R,6S)-2-methyl-6-[[3-(4-piperazin-1-ylphenyl)azetidin-1-yl]methyl]morpholin-4-yl]quinoline-8-carbonitrile] | 0.052 |
| C[C@@H]1CN(c2ccc(C#N)c3ncccc23)C[C@H](CN2CCN(c3ccnc(N4C[C@H]5NCCO[C@@H]5C4)n3)CC2)O1 [Example 103, 5-[(2S,6R)-2-[[4-[2-[(4aR,7aR)-3,4,4a,5,7,7a-hexahydro-2H-pyrrolo[3,4-b][1,4]oxazin-6-yl]pyrimidin-4-yl]piperazin-1-yl]methyl]-6-methyl-morpholin-4-yl]quinoline-8-carbonitrile] | 0.1 |
| C[C@@H]1CN(c2ccc(C#N)c3ncccc23)C[C@H](CN2CCN(c3ccc(CN)cc3)CC2)O1 [Example 5, 5-[(2S,6R)-2-[[4-[4-(aminomethyl)phenyl]piperazin-1-yl]methyl]-6-methyl-morpholin-4-yl]quinoline-8-carbonitrile] | 0.198 |
| [2H]c1ccc2c(N3C[C@H](CN4CC(c5ccc(N6CC(C)(N)C6)cc5)C4)O[C@H](C)C3)ccc(C#N)c2n1 [Example 141, 5-[(2S,6R)-2-[[3-[4-(3-amino-3-methyl-azetidin-1-yl)phenyl]azetidin-1-yl]methyl]-6-methyl-morpholin-4-yl]-2-deuterio-quinoline-8-carbonitrile] | 0.044 |
| C[C@@H]1CN(c2ccc(C#N)n3ncc(F)c23)C[C@H](CN2CC(c3ccc(N4C[C@@H]5C[C@H]4CN5)nc3)C2)O1 [Example 165, 4-[(2S,6R)-2-[[3-[6-[(1S,4S)-2,5-diazabicyclo[2.2.1]heptan-2-yl]-3-pyridyl]azetidin-1-yl]methyl]-6-methyl-morpholin-4-yl]-3-fluoro-pyrazolo[1,5-a]pyridine-7-carbonitrile] | 0.108 |
| C[C@@H]1CN(c2ccc(C#N)n3ncc(F)c23)C[C@H](CN2CC(c3ccc(N4CC(C)(N)C4)cc3)C2)O1 [Example 160, 4-[(2S,6R)-2-[[3-[4-(3-amino-3-methyl-azetidin-1-yl)phenyl]azetidin-1-yl]methyl]-6-methyl-morpholin-4-yl]-3-fluoro-pyrazolo[1,5-a]pyridine-7-carbonitrile] | 0.163 |
| [2H]c1ccc2c(N3C[C@H](CN4CCN(c5cccc(N6CC(C)(N)C6)n5)CC4)O[C@H](C)C3)ccc(C#N)c2n1 [Example 155, 5-[(2S,6R)-2-[[4-[6-(3-amino-3-methyl-azetidin-1-yl)-2-pyridyl]piperazin-1-yl]methyl]-6-methyl-morpholin-4-yl]-2-deuterio-quinoline-8-carbonitrile] | 0.071 |

Second part, the compound after the results:

| IC50 [µM] | SMILES |
| --- | --- |
| 0.155 | Cc1ccc(N2C[C@H](CN3CCN(c4ccnc(N5CC(N)C5)n4)CC3)O[C@H](C)C2)c2nccnc12 [Example 130, 1-[4-[4-[[(2S,6R)-6-methyl-4-(8-methylquinoxalin-5-yl)morpholin-2-yl]methyl]piperazin-1-yl]pyrimidin-2-yl]azetidin-3-amine] |
| 0.113 | [2H]c1ccc2c(N3C[C@H](CN4CCN(c5nc(OC)cc(N6CC(C)(N)C6)n5)CC4)O[C@H](C)C3)ccc(C#N)c2n1 [Example 131, 5-[(2S,6R)-2-[[4-[4-(3-amino-3-methyl-azetidin-1-yl)-6-methoxy-pyrimidin-2-yl]piperazin-1-yl]methyl]-6-methyl-morpholin-4-yl]-2-deuterio-quinoline-8-carbonitrile] |
| 0.031 | [2H]c1ccc2c(N3C[C@H](CN4CCN(c5nc(C)cc(N6C[C@@H](N)[C@H](OC)C6)n5)CC4)O[C@H](C)C3)ccc(C#N)c2n1 [Example 144, 5-[(2S,6R)-2-[[4-[4-[(3R,4R)-3-amino-4-methoxy-pyrrolidin-1-yl]-6-methyl-pyrimidin-2-yl]piperazin-1-yl]methyl]-6-methyl-morpholin-4-yl]-2-deuterio-quinoline-8-carbonitrile] |
| 0.102 | COc1cc(N2CCN(C[C@H]3CN(c4ccc(C#N)c5ncccc45)C[C@@H](C)O3)CC2)nc(N2CCNCC2)n1 [Example 91, 5-[(2S,6R)-2-[[4-(6-methoxy-2-piperazin-1-yl-pyrimidin-4-yl)piperazin-1-yl]methyl]-6-methyl-morpholin-4-yl]quinoline-8-carbonitrile] |
| 0.031 | CO[C@@H]1CN(c2cc(C)nc(N3CCN(C[C@H]4CN(c5ccc(C#N)c6nccnc56)C[C@@H](C)O4)CC3)n2)C[C@@H]1N [Example 120, 8-[(2S,6R)-2-[[4-[4-[(3S,4R)-3-amino-4-methoxy-pyrrolidin-1-yl]-6-methyl-pyrimidin-2-yl]piperazin-1-yl]methyl]-6-methyl-morpholin-4-yl]quinoxaline-5-carbonitrile] |
| 0.031 | C[C@@H]1CN(c2ccc(C#N)c3ncccc23)C[C@H](CN2CCN(c3ccnc(N4C[C@@H](F)[C@@H](N)C4)n3)CC2)O1 [Example 95, 5-[(2S,6R)-2-[[4-[2-[(3S,4R)-3-amino-4-fluoro-pyrrolidin-1-yl]pyrimidin-4-yl]piperazin-1-yl]methyl]-6-methyl-morpholin-4-yl]quinoline-8-carbonitrile] |
| 0.07 | CO[C@H]1CN(c2cc(C)nc(N3CCN(C[C@H]4CN(c5ccc(C#N)c6nccnc56)C[C@@H](C)O4)CC3)n2)C[C@@H]1N [Example 104, 8-[(2S,6R)-2-[[4-[4-[(3S,4S)-3-amino-4-methoxy-pyrrolidin-1-yl]-6-methyl-pyrimidin-2-yl]piperazin-1-yl]methyl]-6-methyl-morpholin-4-yl]quinoxaline-5-carbonitrile] |
| 0.034 | CO[C@H]1CN(c2ccnc(N3CCN(C[C@H]4CN(c5ccc(C#N)c6ncccc56)C[C@@H](C)O4)CC3)n2)C[C@@H]1N [Example 97, 5-[(2S,6R)-2-[[4-[4-[(3S,4S)-3-amino-4-methoxy-pyrrolidin-1-yl]pyrimidin-2-yl]piperazin-1-yl]methyl]-6-methyl-morpholin-4-yl]quinoline-8-carbonitrile] |
